# Data as given in patent US20190136321A1, “USE OF TRANSLATIONAL PROFILING TO IDENTIFY TARGET MOLECULES FOR THERAPEUTIC TREATMENT” (The Regents of The University of California, priority 2013, published 2019).
# Key:
# Format in all cases: cell-based, human
# PC3 cells = experiment: Polysome analysis; settings: 100 nM, 3-hour
# Method: Cells were re-suspended in PBS containing 100 μg ml^−1 cycloheximide (Sigma) and incubated on ice for 10 min. Cells were centrifuged at 300 g for 5 min at 4° C. and lysed in 10 mM Tris-HCl pH 8, 140 mM NaCl, 5 mM MgCl2, 640 U ml^−1 Rnasin, 0.05% NP-40, 250 μg ml^−1 cycloheximide, 20 mM DTT, and protease inhibitors. Samples were incubated for 20 min on ice, then centrifuged once for 5 min at 3,300 g and once for 5 min at 9,300 g, isolating the supernatant after each centrifugation. Lysates were loaded onto 10-50% sucrose gradients containing 0.1 mg ml^−1 heparin and 2 mM DTT and centrifuged at 37,000 r.p.m. for 2.5 hr at 4° C. The sample was subsequently fractionated on a gradient fractionation system (ISCO). RNA was extracted from all fractions and run on a TBE-agarose gel to visualize 18S and 28S rRNA.
# GFP-labeled PC3 cells = experiment: Real-time imaging of cell migration; settings: starting at 6 hr of treatment
# Method: Real-time imaging of GFP-labeled PC3 cells was performed in poly-D-lysine-coated chamber cover glass slides (Lab-Tek). PC3 GFP cells were plated and allowed to adhere for 24 hr. Wells were wounded with a P200 pipette tip. The chamber slides were imaged with an IX81 Olympus wide-field fluorescence microscope equipped with a CO2- and temperature-controlled chamber and time-lapse tracking system. Images from DIC and GFP channels were taken every 2 min and processed using ImageJ and analyzed for cell migration with Manual Tracking, using local maximum centering correction to maintain a centroid xy coordinate for each cell per frame over time. Tracking data was subsequently processed with the Chemotaxis and Migration tool from ibidi to create xy coordinate plots, velocity, and distance measurements.
# Snail1, LEF1 and Twist1 = experiment: Snail1 immunocytochemistry, LEF1/Twist1 Western blot and qPCR (YB1 target genes); settings: PC3 cells, 200 nM
# Method: Western blot analysis was performed as previously described (Hsieh et al., Cancer Cell 17:249-261 (2010)) with antibodies specific to phospho-AKT^S473 (Cell Signaling), AKT (Cell Signaling), phospho-p70S6K^T389 (Cell Signaling), phospho-rpS6^S240/244 (Cell Signaling), rpS6 (Cell Signaling), phospho-4EBP1^T37/46 (Cell Signaling), 4EBP1 (Cell Signaling), 4EBP2 (Cell Signaling), YB1 (Cell Signaling), CD44 (Cell Signaling), LEF1 (Cell Signaling), PTEN (Cell Signaling), eEF2 (Cell Signaling), GAPDH (Cell Signaling), vimentin (BD Biosciences), eIF4E (BD Biosciences), Flag (Sigma), β-actin (Sigma), MTA1 (Santa Cruz Biotechnology), Twist (Santa Cruz Biotechnology), rpL28 (Santa Cruz Biotechnology), HA (Covance) and rictor (Bethyl Laboratory).
# RNA was isolated using the manufacturer's protocol for RNA extraction with TRIzol Reagent (Invitrogen) using the Pure Link RNA mini kit (Invitrogen). RNA was DNase-treated with Pure Link Dnase (Invitrogen). DNase-treated RNA was transcribed to cDNA with SuperScript III First-Strand Synthesis System for RT-PCR (Invitrogen), and 1 μl of cDNA was used to run a SYBR green detection qPCR assay (SYBR Green Supermix and MyiQ2, Biorad). […]
# Appropriately transfected or treated PC3 cells were plated on a poly-L-lysine-coated chamber slide (Lab-Tek) and cultured for 48 hr. […] Image capture and quantification were completed as described below (see “Immunofluorescence”).
# [1] = test system: YB1, MTA1, vimentin, and CD44; experiment: Western blot and qPCR of mTOR-sensitive invasion genes in PC3 cells; settings: starting at 6 hr of treatment
# Method: RNA was isolated using the manufacturer's protocol for RNA extraction with TRIzol Reagent (Invitrogen) using the Pure Link RNA mini kit (Invitrogen). RNA was DNase-treated with Pure Link Dnase (Invitrogen). DNase-treated RNA was transcribed to cDNA with SuperScript III First-Strand Synthesis System for RT-PCR (Invitrogen), and 1 μl of cDNA was used to run a SYBR green detection qPCR assay (SYBR Green Supermix and MyiQ2, Biorad). Primers were used at 200 nM.
smiles,measurement,setting,value
CC(C)n1nc(-c2ccc3oc(N)nc3c2)c2c(N)ncnc21 [ATP site inhibitor of mTOR],association of YB1 and rpS19 mRNAs in polysome fractions,PC3 cells,differential association
same,β-actin mRNA association in polysome fractions,PC3 cells,no change
same,cancer cell migration,GFP-labeled PC3 cells,inhibited
same,"protein levels but not mRNA levels of YB1 target genes (Snail1, LEF1, Twist1)","Snail1, LEF1 and Twist1",decreases
same,"expression of YB1, MTA1, vimentin, and CD44 at the protein but not transcript level",[1],selective decrease
